According to ChEMBL document CHEMBL1201862, “PubChem BioAssay data set” (2004):
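Test compounds were applied to cells in 96-well plates for 48 hours at 5 doses. Here, GI50 denotes the concentration required for 50% inhibition of growth.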 Calls of active or inactive are those of the source. Cut-off read from the data, not from the text of the source: active = GI50 up to about 1.1 µM and inactive = higher.

Columns and labels:
Experiment in all cases: DTP human tumour cell line panel, 48 h
[1] = tested on: DLD-1
[2] = tested on: DMS-114
[3] = tested on: DMS-273
[4] = tested on: KM-20L2
[5] = tested on: LXFL 529
[6] = tested on: M19-MEL
[7] = tested on: RXF 631
[8] = tested on: HOP-18
[9] = tested on: SNB-78

SMILES	GI50 [1]	GI50 [2]	GI50 [3]	GI50 [4]	GI50 [5]	GI50 [6]	GI50 [7]	GI50 [8]	GI50 [9]
COc1cc(C(C)c2cc3c(cc2OCCN)OCO3)cc(OC)c1OC (configuration not stated)	36 µM (inactive)	52 µM (inactive)	> 100 µM (inactive)	28.8 µM (inactive)	75.5 µM (inactive)	39.8 µM (inactive)	> 100 µM (inactive)	–	–
CN(CCc1ccccn1)c1nc(=[N+](C)C)ss1	> 100 µM (inactive)	> 100 µM (inactive)	> 100 µM (inactive)	> 100 µM (inactive)	72.9 µM (inactive)	78.5 µM (inactive)	> 100 µM (inactive)	> 100 µM (inactive)	> 100 µM (inactive)
NC1CCCCC1.O=C(O)C(CP(=O)(O)O)=C(Cl)Cl	–	–	> 100 µM (inactive)	> 100 µM (inactive)	> 100 µM (inactive)	> 100 µM (inactive)	–	> 100 µM (inactive)	> 100 µM (inactive)
N=C(N)Cn1cnc2ccccc21	–	> 100 µM (inactive)	–	> 100 µM (inactive)	> 100 µM (inactive)	> 100 µM (inactive)	–	> 100 µM (inactive)	> 100 µM (inactive)
Cn1c(C2CCCc3c2c2ccccc2n3C)cc2ccccc21 (configuration not stated)	126 µM (inactive)	34.3 µM (inactive)	57.3 µM (inactive)	179 µM (inactive)	121 µM (inactive)	85.5 µM (inactive)	126 µM (inactive)	8.02 µM (inactive)	–
COC(=O)/C(C#N)=C1\CCC(O)N1 (configuration not stated)	> 100 µM (inactive)	> 100 µM (inactive)	> 100 µM (inactive)	> 100 µM (inactive)	> 100 µM (inactive)	> 100 µM (inactive)	–	> 100 µM (inactive)	> 100 µM (inactive)
CN(C)CCC[N+]1=Nc2cccc3cccc(c23)N1	17.5 µM (inactive)	60.3 µM (inactive)	18.8 µM (inactive)	23.7 µM (inactive)	49.8 µM (inactive)	48.2 µM (inactive)	> 100 µM (inactive)	> 100 µM (inactive)	> 100 µM (inactive)
C/C(=N/NC(N)=S)C(CN(C)C)C(C1=C(O)c2ccccc2OC1)c1ccccc1 (configuration not stated)	> 100 µM (inactive)	> 100 µM (inactive)	> 100 µM (inactive)	> 100 µM (inactive)	> 100 µM (inactive)	> 100 µM (inactive)	–	> 100 µM (inactive)	> 100 µM (inactive)
CCCC(=O)C(CC)/C(CCC(=O)N(Cc1ccccc1)Cc1ccccc1)=N/NC(=O)C[N+](C)(C)C (configuration not stated)	> 100 µM (inactive)	> 100 µM (inactive)	> 100 µM (inactive)	> 100 µM (inactive)	> 100 µM (inactive)	> 100 µM (inactive)	–	> 100 µM (inactive)	> 100 µM (inactive)
COc1cc2ccnc([C@@H](OC(=O)c3ccccc3)c3ccc(OC)c(OC)c3OC)c2cc1OC	27.9 µM (inactive)	33.1 µM (inactive)	> 10 µM (inactive)	32.3 µM (inactive)	30.8 µM (inactive)	73.6 µM (inactive)	50 µM (inactive)	> 100 µM (inactive)	50.5 µM (inactive)
CC(SC(=S)Nc1cccc(F)c1)C(=O)O (configuration not stated)	–	15.1 µM (inactive)	11.8 µM (inactive)	26.4 µM (inactive)	17.9 µM (inactive)	–	–	–	38.9 µM (inactive)
Cc1c(C(=O)C/C(=N\O)C(=O)Nc2cc(Cl)c(Cl)cc2Cl)[n+]([O-])c2ccccc2[n+]1[O-]	22 µM (inactive)	4.37 µM (inactive)	17.1 µM (inactive)	15.9 µM (inactive)	15 µM (inactive)	2.2 µM (inactive)	–	20.7 µM (inactive)	41.3 µM (inactive)
CC/N=C(/C#N)NCC	> 100 µM (inactive)	37.6 µM (inactive)	44.5 µM (inactive)	> 100 µM (inactive)	> 100 µM (inactive)	> 100 µM (inactive)	–	> 100 µM (inactive)	> 100 µM (inactive)
Cc1c2c(ccc3ccccc32)c[n+]2ccccc12	9.75 µM (inactive)	3.24 µM (inactive)	12.7 µM (inactive)	12.6 µM (inactive)	5.09 µM (inactive)	–	–	–	–
C/C=C(/C)C(=O)O[C@H]1[C@H](O)CC(c2ccc3c(c2O)C(=O)C2=C(O)C4(OC)C(=O)C(C(N)=O)=C(O)[C@H](CC(=O)c5ccccc5O)C4CC2[C@@]3(C)OC)O[C@@H]1C (some centres not stated)	0.01 µM (active)	0.01 µM (active)	0.01 µM (active)	0.01 µM (active)	0.01 µM (active)	0.01 µM (active)	–	0.01 µM (active)	–
Cc1nnc2n1N=C(CC(=O)c1ccc(O)cc1O)CN2N	> 100 µM (inactive)	19.6 µM (inactive)	40.4 µM (inactive)	> 100 µM (inactive)	> 100 µM (inactive)	91.4 µM (inactive)	> 100 µM (inactive)	–	> 100 µM (inactive)
N=c1c2ccccc2sc2nc3ccccc3n12	> 100 µM (inactive)	> 100 µM (inactive)	> 100 µM (inactive)	–	> 100 µM (inactive)	> 100 µM (inactive)	–	> 100 µM (inactive)	> 100 µM (inactive)
Nc1ccc2n[se]nc2c1	> 100 µM (inactive)	> 100 µM (inactive)	> 100 µM (inactive)	> 100 µM (inactive)	> 100 µM (inactive)	> 100 µM (inactive)	> 100 µM (inactive)	> 100 µM (inactive)	> 100 µM (inactive)
OCCSCC/C(=N\N=C(/CCSCCO)c1ccccc1)c1ccccc1	> 100 µM (inactive)	> 100 µM (inactive)	–	49.9 µM (inactive)	82 µM (inactive)	> 100 µM (inactive)	65.8 µM (inactive)	> 100 µM (inactive)	> 100 µM (inactive)
CC(C)C(=O)N[C@@H](C)C(=O)N(Cc1ccc2ccccc2c1)N=O	> 100 µM (inactive)	33.7 µM (inactive)	28.8 µM (inactive)	> 100 µM (inactive)	71.9 µM (inactive)	97.7 µM (inactive)	–	0.057 µM (active)	> 100 µM (inactive)
COc1ccc(C(=O)Nc2ccccc2C#N)cc1	> 100 µM (inactive)	–	> 100 µM (inactive)	> 100 µM (inactive)	–	> 100 µM (inactive)	–	> 100 µM (inactive)	> 100 µM (inactive)
COc1ccc(N2C(=O)C3c4[nH]c5ccc(OC)cc5c4C4CCC(C(C)(C)C)CC4C3C2=O)cc1 (configuration not stated)	64.7 µM (inactive)	34.4 µM (inactive)	10.2 µM (inactive)	86.9 µM (inactive)	17.6 µM (inactive)	48.5 µM (inactive)	–	44.1 µM (inactive)	3.86 µM (inactive)
COC1[C@H](NC(=O)OC(C)(C)C)C(=O)N1Cc1ccccc1 (some centres not stated)	> 100 µM (inactive)	> 100 µM (inactive)	> 100 µM (inactive)	> 100 µM (inactive)	> 100 µM (inactive)	> 100 µM (inactive)	–	–	> 100 µM (inactive)
